Common to all, as to assay type: biochemical
One assay concerns the target T1, human FAK (Homo sapiens, UniProt Q05397).
T1 construct: The complete cDNA of human FAK; made in house; host or cells: baculovirus expression system (vector pFastBac HTc)
As to the kind of experiment: FAK autophosphorylation inhibition, time resolved fluorescence (HTRF) assay. The conditions noted are these: 10 μM (values without asterisk); for inhibition at 10 µM: read-out: FAK % inhib at 10 μM. The procedure, abridged: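 Autophosphorylation was detected by europium-cryptate anti-pTyr and XL665 anti-His energy transfer, percent inhibition from the 665/620 ratio relative to no-compound wells. Enzyme: His-FAK full length, 6.6 µg/ml, incubated 1 h at 37 °C, pH 7.2, 15 µM ATP.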
For orientation: Time-resolved FRET reads energy transfer from a long-lived donor to a nearby acceptor.

The target in assay [1] is T2, human IGF1R cytoplasmic domain (Homo sapiens, UniProt P08069).
T2 construct: The human IGF1R cytoplasmic domain was cloned; made in house; host or cells: SF21 insect cells (baculovirus)
T2 sequence (P08069 960-1367 limits assumed): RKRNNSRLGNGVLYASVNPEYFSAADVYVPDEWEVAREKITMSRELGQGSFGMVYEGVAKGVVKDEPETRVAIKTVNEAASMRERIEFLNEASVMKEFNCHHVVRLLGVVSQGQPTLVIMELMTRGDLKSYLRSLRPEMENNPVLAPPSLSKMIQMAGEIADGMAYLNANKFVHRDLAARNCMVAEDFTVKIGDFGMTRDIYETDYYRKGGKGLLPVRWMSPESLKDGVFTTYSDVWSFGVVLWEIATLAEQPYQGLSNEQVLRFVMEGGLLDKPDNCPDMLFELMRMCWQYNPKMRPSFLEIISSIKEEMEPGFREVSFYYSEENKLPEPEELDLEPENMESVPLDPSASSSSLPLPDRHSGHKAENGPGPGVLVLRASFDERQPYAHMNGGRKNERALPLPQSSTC
The assay can be described thus: IGF1R autophosphorylation inhibition, time resolved fluorescence (HTRF) assay. The conditions noted are these: 10 μM; read-out: IGF1R % inhib at 10 μM. Put shortly:
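GST-tagged human IGF1R cytoplasmic domain from SF21 cells incubated with compound in 50 mM Hepes pH 7.5, 5 mM MnCl2, 50 mM NaCl, […] ATP. Autophosphorylation detected by HTRF (Eu-K anti-phosphotyrosine, XL665 anti-GST) after EDTA/KF stop; percentage inhibition versus no-compound control.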

Another assay deals with T3, Aurora2 kinase (Homo sapiens, UniProt O14965).
T3 construct: A complete recombinant Aurora2 enzyme; His tag (N); made in house; host or cells: E. coli
T3 sequence (O14965 1-403): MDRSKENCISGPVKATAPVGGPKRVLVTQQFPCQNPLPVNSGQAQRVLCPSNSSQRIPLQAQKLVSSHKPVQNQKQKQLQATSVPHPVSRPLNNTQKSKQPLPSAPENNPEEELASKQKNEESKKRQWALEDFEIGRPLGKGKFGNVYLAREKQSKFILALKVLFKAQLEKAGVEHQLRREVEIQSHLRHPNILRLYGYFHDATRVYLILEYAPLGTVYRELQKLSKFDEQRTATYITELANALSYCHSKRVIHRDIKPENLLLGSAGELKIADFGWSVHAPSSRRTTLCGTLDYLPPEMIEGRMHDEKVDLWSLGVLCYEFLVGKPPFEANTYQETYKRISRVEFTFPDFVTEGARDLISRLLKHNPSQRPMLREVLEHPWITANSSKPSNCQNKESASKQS
As to the kind of experiment: Aurora2 kinase radioactivity scintillation assay using nickel chelate (NuMA substrate). The conditions noted are these: 10 μM; for inhibition at 10 µM: read-out: Aurora2 % inhib at 10 μM. Put shortly: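 Read-out is 33P incorporation into His-NuMA (Q1687-H2101, 0.5 μM) captured on nickel chelate, after 30 min at 37 °C with 0.02 μM His-Aurora2 and 1 μM ATP. Expressed as percentage inhibition of uncompounded control activity, background subtracted.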

Molecules are shown by their SMILES.

T1 sequence (Q05397 whole entry): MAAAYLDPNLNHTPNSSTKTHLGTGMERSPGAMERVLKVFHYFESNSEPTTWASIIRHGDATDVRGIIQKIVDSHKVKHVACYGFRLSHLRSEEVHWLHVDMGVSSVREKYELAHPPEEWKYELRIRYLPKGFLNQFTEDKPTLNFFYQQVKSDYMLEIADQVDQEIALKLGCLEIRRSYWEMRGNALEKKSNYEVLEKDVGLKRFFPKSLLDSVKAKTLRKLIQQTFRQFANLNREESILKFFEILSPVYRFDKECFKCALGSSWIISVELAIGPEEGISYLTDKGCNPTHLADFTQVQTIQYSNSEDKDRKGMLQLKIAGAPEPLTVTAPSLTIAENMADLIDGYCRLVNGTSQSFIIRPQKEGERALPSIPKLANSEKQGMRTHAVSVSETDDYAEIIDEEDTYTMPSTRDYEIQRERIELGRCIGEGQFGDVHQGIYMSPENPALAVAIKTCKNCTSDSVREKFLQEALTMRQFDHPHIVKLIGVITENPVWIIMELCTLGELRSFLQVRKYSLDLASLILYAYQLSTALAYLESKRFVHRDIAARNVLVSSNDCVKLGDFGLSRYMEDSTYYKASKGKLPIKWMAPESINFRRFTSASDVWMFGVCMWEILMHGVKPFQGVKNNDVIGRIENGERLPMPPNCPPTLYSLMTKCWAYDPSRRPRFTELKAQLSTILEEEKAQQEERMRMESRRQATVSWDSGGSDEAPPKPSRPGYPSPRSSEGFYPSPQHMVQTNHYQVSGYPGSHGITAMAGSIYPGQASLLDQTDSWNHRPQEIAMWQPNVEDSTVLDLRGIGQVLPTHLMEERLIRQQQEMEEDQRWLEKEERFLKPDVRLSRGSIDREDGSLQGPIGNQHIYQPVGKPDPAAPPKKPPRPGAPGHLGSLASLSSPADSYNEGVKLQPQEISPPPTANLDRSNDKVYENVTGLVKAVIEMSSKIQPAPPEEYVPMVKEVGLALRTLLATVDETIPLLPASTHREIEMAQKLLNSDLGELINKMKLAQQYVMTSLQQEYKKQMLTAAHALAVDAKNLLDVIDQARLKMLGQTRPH

`CS(=O)(=O)c1ccccc1S(=O)(=O)Nc1ccc2[nH]nc(-c3cc4ccccc4s3)c2c1` [Example 65, N-(3-Benzo[b]thiophen-2-yl-1H-indazol-5-yl)-2-methylsulfonylbenzenesulfonamide]: the inhibition at 10 µM was 86% on human FAK, 63% in assay [1] and 100% at Aurora2 kinase.

As to `CS(=O)(=O)c1ccccc1S(=O)(=O)Nc1ccc2[nH]nc(-c3ccc(N)cc3)c2c1` [Example 70, N-[3-(4-Aminophenyl)-1H-indazol-5-yl]-2-methylsulfonylbenzenesulfonamide], the inhibition at 10 µM on human FAK is 99%; in assay [1], 85%; at Aurora2 kinase, 98%.

With `CS(=O)(=O)c1ccccc1S(=O)(=O)Nc1ccc2[nH]nc(-c3cccc(C#N)c3)c2c1` [Example 71, N-[3-(3-Cyanophenyl)-1H-indazol-5-yl]-2-methylsulfonylbenzenesulfonamide], the inhibition at 10 µM at human FAK was 97%; in assay [1], 90%; at Aurora2 kinase, 93%.

With `CS(=O)(=O)c1ccccc1S(=O)(=O)Nc1ccc2[nH]nc(/C=C/c3ccc(F)cc3)c2c1` [Example 74, N-{3-[(E)-2-(4-Fluorophenyl)vinyl]-1H-indazol-5-yl}-2-methylsulfonylbenzenesulfonamide], the inhibition at 10 µM was 99% on human FAK, 95% in assay [1] and 99% at Aurora2 kinase.

Consider `CS(=O)(=O)c1ccccc1S(=O)(=O)Nc1ccc2[nH]nc(/C=C/c3ccc(Cl)cc3)c2c1` [Example 76, N-{3-[(E)-2-(4-Chlorophenyl)vinyl]-1H-indazol-5-yl}-2-methylsulfonylbenzenesulfonamide], for which the inhibition at 10 µM at human FAK came out at 96%; in assay [1], 96%; on Aurora2 kinase, 99%.

For `COC(=O)/C=C/c1n[nH]c2ccc(NS(=O)(=O)c3ccccc3S(C)(=O)=O)cc12` [Example 79, Methyl (E)-3-[5(2-methylsulfonylbenzenesulfonylamino)-1H-indazol-3-yl]-acrylate], the figures for the inhibition at 10 µM (at human FAK; in assay [1]; on Aurora2 kinase) were 98%, 37% and 95%, respectively.

As for `CS(=O)(=O)c1ccccc1S(=O)(=O)Nc1ccc2[nH]nc(-c3nc4ccccc4[nH]3)c2c1` [Example 81, N-[3-(1H-Benzimidazol-2-yl)-1H-indazol-5-yl]-2-methylsulfonylbenzenesulfonamide], the inhibition at 10 µM was 98% on human FAK, 99% in assay [1] and 100% on Aurora2 kinase.

Regarding `O=S(=O)(Nc1ccc2[nH]nc(-c3cc4ccccc4[nH]3)c2c1)c1ccccc1OC(F)(F)F` [Example 84, N-[3-(1H-Indol-2-yl)-1H-indazol-5-yl]-2-trifluoromethoxybenzenesulfonamide], the inhibition at 10 µM on human FAK was determined as 90%; in assay [1], 94%; on Aurora2 kinase it was 100%.

Take `CS(=O)(=O)c1ccccc1S(=O)(=O)Nc1ccc2[nH]nc(Sc3ccccc3)c2c1` [Example 88, 2-Methylsulfonyl-N-(3-phenylsulfanyl-1H-indazol-5-yl)-benzenesulfonamide]: the inhibition at 10 µM on human FAK worked out at 21%; in assay [1], 82%; on Aurora2 kinase, 55%.

For the molecule `CS(=O)(=O)c1ccccc1S(=O)(=O)Nc1ccc2[nH]nc(C#Cc3ccccc3)c2c1` [Example 89, 2-Methylsulfonyl-N-(3-phenylethynyl-1H-indazol-5-yl)-benzenesulfonamide], the inhibition at 10 µM at human FAK turned out to be 92%; in assay [1], 90%; on Aurora2 kinase, 92%.

Consider `Cc1cc2[nH]nc(-c3ccccc3)c2cc1NS(=O)(=O)c1ccccc1S(C)(=O)=O` [Example 92, 2-Methylsulfonyl-N-(6-methyl-3-phenyl-1H-indazol-5-yl)-benzenesulfonamide], for which the inhibition at 10 µM amounted to 27% at human FAK, 62% in assay [1] and 70% at Aurora2 kinase.

As to `CS(=O)(=O)c1ccc(F)cc1S(=O)(=O)Nc1ccc2[nH]nc(-c3ccccc3)c2c1` [Example 93, 5-Fluoro-2-methylsulfonyl-N-(3-phenyl-1H-indazol-5-yl)-benzenesulfonamide], the inhibition at 10 µM came to 94% on human FAK, 87% in assay [1] and 89% at Aurora2 kinase.

With `Nc1ccc(S(=O)(=O)Nc2ccc3[nH]nc(-c4ccccc4)c3c2)cc1` [Example 94, 4-Amino-N-(3-phenyl-1H-indazol-5-yl)benzenesulfonamide], the inhibition at 10 µM on human FAK is 36%; in assay [1], 70%; at Aurora2 kinase, 65%.

As to `CC(=O)Nc1ccc(S(=O)(=O)Nc2ccc3[nH]nc(-c4ccccc4)c3c2)cc1` [Example 95, N-[4-(3-Phenyl-1H-indazol-5-ylsulfamoyl)phenyl]acetamide], the “FAK % inhib at 10 μM” value on human FAK (10 µM) was 0%. The inhibition at 10 µM in assay [1] amounted to 73%. Besides, the “Aurora2 % inhib at 10 μM” value on Aurora2 kinase was determined as 30%.

For the molecule `O=S(=O)(Nc1ccc2[nH]nc(-c3ccccc3)c2c1)C1CCNCC1` [Example 100, N-(3-Phenyl-1H-indazol-5-yl)-piperidine-4-sulfonamide], the results for the inhibition at 10 µM (on human FAK; in assay [1]; on Aurora2 kinase) were 94%, 13% and 44%, respectively.

On to `O=S(=O)(Nc1ccc2[nH]nc(-c3ccccc3)c2c1)c1ccccc1C(F)(F)F` [Example 109, N-(3-Phenyl-1H-indazol-5-yl)-2-trifluoromethylbenzene-sulfonamide], for which the results for the inhibition at 10 µM (at human FAK; in assay [1]; on Aurora2 kinase) were 61%, 81% and 100%, respectively.

Consider `O=S(=O)(Nc1ccc2[nH]nc(-c3ccccc3)c2c1)c1cccs1` [Example 110, N-(3-Phenyl-1H-indazol-5-yl)-thiophene-2-sulfonamide], for which the figures for the inhibition at 10 µM (on human FAK; in assay [1]; on Aurora2 kinase) were 66%, 80% and 100%, respectively.

Regarding `O=S(=O)(Nc1ccc2[nH]nc(-c3ccccc3)c2c1)c1ccccc1` [Example 112, N-(3-Phenyl-1H-indazol-5-yl)benzenesulfonamide], the inhibition at 10 µM was 75% on human FAK, 84% in assay [1] and 100% on Aurora2 kinase.

In the case of `O=[N+]([O-])c1ccccc1S(=O)(=O)Nc1ccc2[nH]nc(-c3ccccc3)c2c1` [Example 113, 2-Nitro-N-(3-phenyl-1H-indazol-5-yl)benzenesulfonamide], the inhibition at 10 µM on human FAK came out at 73%; in assay [1], 81%; at Aurora2 kinase it was 100%.

In the case of `O=S(=O)(Nc1ccc2[nH]nc(-c3ccccc3)c2c1)c1ccc(F)cc1` [Example 117, 4-Fluoro-N-(3-phenyl-1H-indazol-5-yl)-benzenesulfonamide], the results for the inhibition at 10 µM (on human FAK; in assay [1]; on Aurora2 kinase) were 53%, 56% and 100%, respectively.

On to `COc1ccc(OC)c(S(=O)(=O)Nc2ccc3[nH]nc(-c4ccccc4)c3c2)c1` [Example 131, 2,5-Dimethoxy-N-(3-phenyl-1H-indazol-5-yl)-benzenesulfonamide], for which the inhibition at 10 µM at human FAK is 64%; in assay [1], 51%; on Aurora2 kinase, 97%.

(Values after US6858638B2, “Substituted indazoles, compositions containing them, method of production and use” (Aventis Pharma S.A., priority 2002, dated 2005).)
